Assay results: US10927089B2, “Diaryl thioether piperazine compounds, preparation methods and uses thereof” (SUNSHINE LAKE PHARMA CO., LTD., priority 2016, dated 2021)

Test: Pharmacokinetic evaluation after intramuscular injection to rats
Assay type: in vivo
Settings: im, male rat, solution, 17.5 mg/kg, vortioxetine in plasma
Procedure: The LC/MS/MS system for analysis consists of the Agilent 1200 series vacuum degassing furnace, binary syringe pump, well plate autosampler, column incubator, and API4000 three-stage quadrupole mass spectrometer equipped with electro spray ionization (ESI) source.
Waters XBridge™ C18, 2.1×30 mm, 3.5 μM column was used for analysis, and 20 μL of sample was injected. Analytical conditions: the mobile phase was (2 mM ammonium formate+0.1% formic acid) (A) and (methanol+2 mM ammonium formate+0.1% formic acid) (B). The flow rate was 0.5 mL/min.
In addition, the API4000 Series LC/MS/MS spectrometer for analysis was equipped with a G1312A binary syringe pump, G1367A autosampler and MS/MS detector; ESI source was used in LC/MS/MS spectrometer. Each analyte was treated in a suitable cation model and optimally analyzed by MRM conversion with using standard solutions. Waters XBridge™ C18 was used during the analysis and the size was: 2.1×30 mm, 3.5 μM. The mobile phase was (2 mM ammonium formate+0.1% formic acid) (A) and (methanol+2 mM ammonium formate+0.1% formic acid) (B). The flow rate was 0.5 mL/min; the column temperature was maintained at 40° C.; 15 μL of sample was injected.
The present invention evaluates the pharmacokinetic study of a series of compounds of the invention in rats. The compound of the present invention was added into a mixture formed by dissolving and dispersing Tween-20 and/or Span-20 in water after being subjected to a pretreatment such as grinding, sieving, etc., and was uniformly dispersed and fixed to a constant volume; the suspension was grinded by a ball mill, then administered. The animals were given a vortioxetine solution (17.5 mg/kg) and a suspension of vortioxetine compound (75 mg/kg) by intramuscular injection. After administration, whole blood was collected at 0.25, 1, 2, 5, 7, 24, 48, 72, 96, 120, 148, and 196 h, and plasma was separated and frozen for testing. And the plasma was centrifuge at 12,000 for 2 minutes. Plasma samples were collected and stored at −20° C. or −70° C. until LC/MS/MS analysis. […] The average drug-time curve of some of the compounds of the present invention after intramuscular injection in rats is shown in FIG. 1.

AUC(0-t) (read-out: Exposure level AUClast): 1.37 µg·h/mL
half-life (read-out: Half-life period T1/2 (converted)): 2.74 h
Cmax (read-out: Peak concentration Cmax): 0.53 µg/mL
Tmax (read-out: Time to peak Tmax): 0.25 h
Structure (SMILES): Cc1ccc(Sc2ccccc2N2CCNCC2)c(C)c1 [WTXT, Vortioxetine]
